Laboratory results published in patent US20230203041A1, “ANTAGONISTS OF THE ADENOSINE A2A RECEPTOR” (AdoRx Therapeutics Limited, priority 2020, published 2023).
Structures can show the parent of a compound that is named as a salt.

Tests used:
[1] = biological target: T1, human Adenosine A2a receptor (Homo sapiens, UniProt P29274); assay: Adenosine receptor TR-FRET binding assay (CA200645 displacement), A2a; settings: 100 nM CA200645, CHO cell membranes, 2 hours at room temperature
T1 construct: expressed in transfected cells; host or cells: CHO cell membranes
T1 sequence (P29274 whole entry): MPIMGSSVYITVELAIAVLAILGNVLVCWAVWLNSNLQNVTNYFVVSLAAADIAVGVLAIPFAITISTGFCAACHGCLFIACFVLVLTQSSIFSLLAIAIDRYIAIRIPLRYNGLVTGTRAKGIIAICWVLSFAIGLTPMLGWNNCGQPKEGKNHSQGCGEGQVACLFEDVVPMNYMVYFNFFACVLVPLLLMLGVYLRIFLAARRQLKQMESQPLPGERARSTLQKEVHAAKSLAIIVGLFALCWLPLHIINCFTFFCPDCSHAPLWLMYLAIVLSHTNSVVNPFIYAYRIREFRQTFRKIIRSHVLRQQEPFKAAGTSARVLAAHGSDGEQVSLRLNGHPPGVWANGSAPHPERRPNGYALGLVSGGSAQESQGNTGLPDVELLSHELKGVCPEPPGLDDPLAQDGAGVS

[2] = biological target: T2, human Adenosine A2b receptor (Homo sapiens, UniProt P29275); assay: Adenosine receptor TR-FRET binding assay (CA200645 displacement), A2b; settings: 30 nM CA200645, CHO cell membranes, 2 hours at room temperature
T2 construct: expressed in transfected cells; host or cells: CHO cell membranes
T2 sequence (P29275 1-332): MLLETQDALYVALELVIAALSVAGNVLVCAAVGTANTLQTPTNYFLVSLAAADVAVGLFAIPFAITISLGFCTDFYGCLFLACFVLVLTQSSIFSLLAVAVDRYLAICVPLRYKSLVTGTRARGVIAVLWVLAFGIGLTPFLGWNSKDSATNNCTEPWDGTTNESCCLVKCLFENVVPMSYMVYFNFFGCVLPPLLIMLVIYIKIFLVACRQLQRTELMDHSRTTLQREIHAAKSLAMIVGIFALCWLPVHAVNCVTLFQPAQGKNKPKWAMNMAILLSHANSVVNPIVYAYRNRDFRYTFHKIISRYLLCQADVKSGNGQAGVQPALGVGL
Procedure: (§1) All FRET binding experiments were conducted at room temperature in white 384-well plates, in assay binding buffer containing 1×LabMed (Cisbio, France), 100 μg/mL saponin, 1% DMSO and 0.02% pluronic acid. Binding of the fluorescently labelled Adenosine receptor antagonist XAC (CA200645, FRET acceptor) to terbium-labelled A1, A2a, A2b and A3 adenosine receptors (FRET donors) was detected by time-resolved FRET due to the close proximity of the donor and acceptor in a binding event. To investigate the ability of unlabelled test compounds to bind to Adenosine A1, A2a, A2b and A3 receptors, dose response curves were constructed that determined the ability of a range of concentrations to inhibit the binding of 30 nM CA200645 to the A2b receptor and 100 nM CA200645 to the A1, A2a, and A3 receptor.
(§2) Serial dilution (1:3 dilutions) of test compounds in neat DMSO and transfer of a 400 nL sample of test compound into the assay plate was carried out using the Mosquito (TTP Labtech, UK). The compound samples were incubated for 2 hours at room temperature with a fixed concentration of CA200645 defined for each receptor (see above) and CHO cell membranes containing the human Adenosine A1 (0.5 μg/well), A2a (0.3 μg/well), A2b (1 μg/well) or A3 (1 μg/well) receptor in 40 μL of assay buffer. Total and non-specific binding of CA200645 was determined in the absence and presence of 10 μM XAC, respectively. Following 2 hours incubation, the level of CA200645 binding was detected on a Pherastar FSX (BMG Labtech, Germany) using standard TR-FRET settings. The terbium donor was excited with three laser flashes at a wavelength of 337 nm, and donor and acceptor emission was detected at 620 nm and 665 nm wavelengths, respectively. FRET ratios were obtained by multiplying the acceptor/donor ratio value by 10,000. Specific binding was determined by subtracting the non-specific binding FRET ratio from the total binding FRET ratio. Compound IC50 curves were analysed using GraphPad Prism 7.0 (GraphPad, USA) and Ki affinity values were determined from the obtained IC50 values using the method of Cheng and Prusoff.

[3] = biological target: T3, human Adenosine A1 receptor (Homo sapiens, UniProt P30542); assay: Adenosine receptor TR-FRET binding assay (CA200645 displacement), A1
T3 sequence (P30542 1-326): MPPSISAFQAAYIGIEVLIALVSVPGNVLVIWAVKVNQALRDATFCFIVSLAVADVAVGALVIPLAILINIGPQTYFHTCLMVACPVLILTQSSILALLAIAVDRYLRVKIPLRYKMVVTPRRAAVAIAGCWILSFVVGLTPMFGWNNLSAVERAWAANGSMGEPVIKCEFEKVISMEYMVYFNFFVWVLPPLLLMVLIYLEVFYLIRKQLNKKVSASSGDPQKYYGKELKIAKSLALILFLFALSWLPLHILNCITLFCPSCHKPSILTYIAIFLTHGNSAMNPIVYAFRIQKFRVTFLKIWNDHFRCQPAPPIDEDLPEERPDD

[4] = biological target: T4, human Adenosine A3 receptor (Homo sapiens, UniProt P0DMS8); assay: Adenosine receptor TR-FRET binding assay (CA200645 displacement), A3
T4 sequence (P0DMS8 1-318): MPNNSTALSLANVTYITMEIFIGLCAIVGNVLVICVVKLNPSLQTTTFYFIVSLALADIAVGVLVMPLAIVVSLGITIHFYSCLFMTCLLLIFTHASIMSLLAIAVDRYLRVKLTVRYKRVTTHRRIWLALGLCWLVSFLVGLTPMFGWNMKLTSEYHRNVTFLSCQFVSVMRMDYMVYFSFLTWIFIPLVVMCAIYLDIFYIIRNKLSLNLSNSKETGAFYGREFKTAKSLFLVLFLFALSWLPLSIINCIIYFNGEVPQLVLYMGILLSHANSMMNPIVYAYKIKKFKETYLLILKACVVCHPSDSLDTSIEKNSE
Procedure: as §1, §2

| Ki [1] | Ki [2] | Ki [3] | Ki [4] | Structure (SMILES) |
| --- | --- | --- | --- | --- |
| 5.5 nM | 5 nM | 612 nM | > 1000 nM | Cc1cc(-c2c(-c3cccc(C#N)c3)nn3ccc(C(=O)N[C@H]4CNC[C@@H]4O)nc23)cc(Cl)n1 [Example 7.5, 3-(2-Chloro-6-methyl-4-pyridyl)-2-(3-cyanophenyl)-N-[trans-(3S,4S)-4-hydroxypyrrolidin-3-yl]pyrazolo[1,5-a]pyrimidine-5-carboxamide] |
| 71.4 nM | 1310 nM | 1390 nM | > 1000 nM | Cc1cc(-c2c(-c3cccc(C#N)c3)nn3ccc(NCC(C)(C)C(=O)O)nc23)cc(Cl)n1 [Example 2.13] |
| 12.3 nM | 80 nM | 1840 nM | > 1000 nM | Cc1cc(-c2c(-c3cccc(C#N)c3)nn3ccc(C(=N)NC(C)(C)C)nc23)cc(Cl)n1 [Example 90, N-tert-Butyl-3-(2-chloro-6-methyl-4-pyridyl)-2-(3-cyanophenyl)pyrazolo [1,5-a]pyrimidine-5-carboxamidine] |
| 0.5 nM | 6 nM | 7 nM | > 1000 nM | Cc1cc(-c2c(-c3cccc(C#N)c3)nn3ccc(N[C@H](C)[C@H](O)CO)nc23)cc(Cl)n1 [Example 4.8, 3-[3-(2-Chloro-6-methyl-4-pyridyl)-5-[[(1R,2S)-2,3-dihydroxy-1-methyl-propyl]amino]pyrazolo[1,5-a]pyrimidin-2-yl]benzonitrile] |
| 25.1 nM | 430 nM | 179 nM | > 1000 nM | Cc1cc(-c2c(-c3cccc(C#N)c3)nn3ccc(N4CC[C@@H](C(=O)O)C4)nc23)cc(Cl)n1 [Example 2.36] |
| 9.2 nM | 17 nM | 438 nM | > 1000 nM | Cc1cc(-c2c(-c3cccc(C#N)c3)nn3ccc(C(=O)NCC4CNC(=O)CO4)nc23)cc(C)n1 (centres unmarked) [Example 92.5] |
| 3.7 nM | 6 nM | 105 nM | > 1000 nM | Cc1cc(-c2c(-c3cccc(C#N)c3)nn3ccc(C(=O)NC45CCC(N)(CC4)C5)nc23)cc(Cl)n1 [Example 6.12, N-(4-Aminonorbornan-1-yl)-3-(2-chloro-6-methyl-4-pyridyl)-2-(3-cyanophenyl)pyrazolo[1,5-a]pyrimidine-5-carboxamide] |
| 13.9 nM | 29 nM | 20 nM | 646 nM | N#Cc1cccc(-c2nn3ccc(N)nc3c2-c2ccnnc2)c1 [Example 1.2] |
| 1.1 nM | 28 nM | 246 nM | > 1000 nM | Cc1cc(-c2c(-c3cccc(C#N)c3)nn3ccc(C(=O)NCC4(C)NC(=O)NC4=O)nc23)cc(C)n1 (centres unmarked) [Example 92.17] |
| 15.8 nM | 55 nM | 450 nM | > 1000 nM | Cc1cc(-c2c(-c3cccc(C#N)c3)nn3ccc(NC(C)CN(C)C)nc23)cc(Cl)n1 (centres unmarked) [Example 2.30] |
| 17.7 nM | 54 nM | 418 nM | > 1000 nM | Cc1cc(-c2c(-c3cccc(C#N)c3)nn3ccc(C(=O)NC4(C#N)CCNCC4)nc23)cc(Cl)n1 (single isomer, unassigned) [Example 7.16, 3-(2-Chloro-6-methyl-4-pyridyl)-2-(3-cyanophenyl)-N-(4-cyano-4-piperidyl)pyrazolo[1,5-a]pyrimidine-5-carboxamide] |
| 0.6 nM | 14 nM | 70 nM | > 1000 nM | Cc1cc(-c2c(-c3cccc(C#N)c3)nn3ccc(C(=O)N[C@H]4COC[C@H]4O)nc23)cc(C)n1 [Example 92.8] |
| 6.3 nM | 28 nM | 160 nM | > 1000 nM | Cc1cc(-c2c(-c3cccc(C#N)c3)nn3ccc(C(=O)N[C@@H]4CCNC4)nc23)cc(Cl)n1 [Example 7.13, 3-(2-Chloro-6-methyl-4-pyridyl)-2-(3-cyanophenyl)-N-[(3R)-pyrrolidin-3-yl]pyrazolo[1,5-a]pyrimidine-5-carboxamide hydrochloride] |
| 45.3 nM | 346 nM | 837 nM | > 1000 nM | Cc1cc(-c2c(-c3cccc(C#N)c3)nn3ccc(NC45CC(C(=O)O)(C4)C5)nc23)cc(Cl)n1 [Example 2.38] |
